Test results from patent publication US8252283B2, “Method for treating vascular disorders” (Cytotools GmbH, priority 1999, dated 2012).
Entries after “also recorded” stand apart in the source; their conditions may differ.

Tests used:
[1] = tested on: human umbilical vein endothelial cells (HUVEC); test: Apoptosis rate of confluent endothelial cells in static culture, DAPI staining; type: cell-based; settings: for Effect on the apoptosis rate (in words): substance(s) added to fresh medium
Procedure: HUVEC are cultivated in gelatin-coated culture vessels at 37° C., 5% CO2 with a water vapor-saturated air atmosphere. The culture medium is changed every 2-3 days; at confluence, the cells are passaged with a division rate of from 1:3 to 1:5. HUVEC grow with strict contact inhibition and form monolayer cell lawns with a typical cobblestone morphology. At confluence, the cultures reach cell densities of 4-9×10^4 cells/cm^2. Only HUVEC cultures of passages 1-4 are used for apoptosis investigations.
(§1) The culture supernatant is aspirated off of a Petri dish, and the cell lawn is fixed with 1 ml of formaldehyde solution on ice for 15 minutes, washed twice with 2 ml of PBS, treated with 0.5 ml of DAPI solution for 15 minutes, washed with PBS and evaluated under a fluorescence microscope. The UV filter set and a 20× or 40× objective are used. 500-1 000 cells are selected at random, and the cells with apoptotic nuclei are counted.
The apoptosis index is calculated by the following formula: […]
(§2) After complete confluence is reached, the cells are employed for the test. Firstly, thrombospondin 1 is added in various concentrations (1-600 μg/ml) to fresh medium and compared with the effect of conditioned medium on the spontaneous apoptosis rate of HUVEC. […] The apoptosis rate is determined by staining apoptotic cells with DAPI.
The cells are seeded into the appropriate culture vessels (e.g. 24-well plate/0.5 ml per well) and employed for the test after complete confluence is reached. Investigations into the effect of various peptides and proteins (table 2) on the apoptosis rate of endothelial cells are carried out.
The cells are seeded in the appropriate culture vessels (e.g. 24-well plate/0.5 ml per well) and employed for the test after complete confluence is reached. […] The apoptotic cells and the total cell count are determined and the apoptosis index is calculated (percent of apoptotic cells). The data of 3 independent experiments are indicated in table 1, stating the mean and standard deviation.

perfused HUVEC = test: Apoptosis rate of endothelial cells in dynamic (perfusion) culture, DAPI staining; type: cell-based, human; settings: for Effect on apoptosis (in words): perfusion culture
Procedure: as §1, §2

HUVEC [2] = test: Induced calcium influx into the cells, intracellular calcium indicator Fluo-3 AM; type: cell-based, human; settings: static culture, measured at addition of substance
Procedure: Fluo-3 is a calcium indicator which forms a fluorescent complex after binding of Ca^2+. The ester Fluo-3 AM is taken up by the cells through diffusion. The calcium indicator Fluo 3 is produced only after hydrolysis of the ester in the cell. […] The measurement is carried out with normal fluorescein filters. At an excitation wavelength of 488 nm (500 nm), the emission maximum is at 525 nm and increases by a factor of 100 (200) through calcium binding.
Confluent HUVEC cell lawns in 24-well plates are washed three times with serum-free medium, incubated with preheated serum-free medium with Fluo-3 AM under culture conditions for 30 minutes and washed three times, and the plate is measured with a fluorimeter. First the sensitivity of the instrument is adjusted, and then fluorescence values corresponding to the instantaneous calcium level in the cell are recorded every 1-10 seconds. Substances can be added to the cells while the measurement is taking place. […] Assessment of the calcium level is possible with this method.
The influx of calcium into the cells can be employed as early indicator.
The test system can also be carried out with the calcium indicator Fluo-3 AM. […] The cells are employed for the test after complete confluence is reached. […] During the measurement, the substances b, c, e, f, g are added to the cells. […]

HUVEC [3] = test: Apoptosis rate after cone and plate shear pre-cultivation and transfer to static wells, DAPI staining (Examples 11, 12); type: cell-based, human; settings: for Apoptosis rate (%) with EGTA and with peptides: 0.5 mM EGTA, RGD peptide 250 μg/ml + IAP peptide 400 μg/ml
Procedure: The cone and plate shear apparatus is first cleaned with a soft cloth and 70% ethanol, the cone is sterilized, and the apparatus is then stabilized at 37° C. in a heating cabinet for at least 30 min. The precultivated cells are washed with culture medium and provided with 0.06 ml/cm^2 fresh culture medium, and the culture dish is rapidly fitted into the cone and plate shear apparatus.
The cone is raised using the coarse adjustment, and the culture dish together with lid is carefully inserted into the holder provided therefor. The lid is taken off and the cone is lowered onto the culture dish and adjusted: the tip of a cone is then a minimal distance from the cell lawn and the cone moves round without abrading. The assembled cone and plate shear apparatus is placed in an incubator at 37° C., 5% (v/v) CO2 with a water vapor-saturated atmosphere for dynamic cultivation of the cells.
as §1
The culture dish is removed and divided into 12 independent culture wells (culture area of each well 0.8 cm^2) by putting in a suitable insert. Half of the culture is cultivated in culture medium with EGTA and the second half is cultivated in culture medium without EGTA. […] The apoptosis rate is determined by staining the apoptotic cells with DAPI.

[4] = static, 48 h, substance(s) in fresh medium, TSP 1 μg/ml, RGD 250 μg/ml, CBD 400 μg/ml

Thrombospondin 1 [TSP-1]
Apoptosis rate (%) ([1]; static culture, 24 h, substance alone (in fresh medium; TSP-1 1 μg/ml, antiserum 1:20, mAb 1:30)): 3.0 ± 0.4%
Effect on the apoptosis rate (in words) ([1]; static culture): increase in spontaneous apoptosis
Effect on the apoptosis rate (in words) ([1]; static culture, listed as thrombospondin): significant increase in the apoptosis rate
Apoptosis rate (%) after 24 h ([1]; static culturing conditions, TSP-1 1 μg/ml): 3.0 ± 0.4%
Apoptosis rate (%) [1, 4]: 6.9 ± 1.2%
Apoptosis rate [%] (with SEM) ([1]; static, 48 hours, fresh medium + TSP-1 1 μg/ml alone): 7.3 ± 0.6%
Apoptosis rate (%) after 24 h (perfused HUVEC; dynamic culturing conditions, TSP-1 1 μg/ml): <0.1%
Effect on apoptosis (in words) (perfused HUVEC): no effect on apoptosis
Effect on apoptosis (in words) (perfused HUVEC; listed as Thrombospondin): no effect on perfused HUVEC
Effect on intracellular calcium level (in words) (HUVEC [2]): increase in the intracellular calcium level; also recorded: calcium influx into the cell

cyclic Arg-Gly-Asp-(D-Phe)-Val peptide [active RGD]
Effect on the apoptosis rate (in words) ([1]; static culture): no effect on the apoptosis rate
Apoptosis rate (%) [1, 4]: 1.2 ± 0.5%

O=C(O)CN(CCOCCOCCN(CC(=O)O)CC(=O)O)CC(=O)O [EGTA]
Apoptosis rate (%) with EGTA [2.5 mM] (HUVEC [3]; 0 hours): 0.40 ± 0.22%
Apoptosis rate (%) with EGTA and with peptides (HUVEC [3]; 0 hours): 0.45 ± 0.24%
Apoptosis rate (%) with EGTA [2.5 mM] (HUVEC [3]; 2 hours): 0.42 ± 0.22%
Apoptosis rate (%) with EGTA and with peptides (HUVEC [3]; 2 hours): 1.00 ± 0.29%
Apoptosis rate (%) with EGTA [2.5 mM] (HUVEC [3]; 3 hours): 0.96 ± 0.27%
Apoptosis rate (%) with EGTA and with peptides (HUVEC [3]; 3 hours): 0.65 ± 0.24%
Apoptosis rate (%) with EGTA [2.5 mM] (HUVEC [3]; 4 hours): 1.56 ± 0.23%
Apoptosis rate (%) with EGTA and with peptides (HUVEC [3]; 4 hours): 1.25 ± 0.33%
Apoptosis rate (%) with EGTA [2.5 mM] (HUVEC [3]; 5 hours): 2.26 ± 0.35%
Effect on the apoptosis rate (in words) (HUVEC [3]; EGTA in culture medium with the active peptides): significant reduction in the apoptosis rate
Effect on the apoptosis rate (in words) (HUVEC [3]; culture medium with 2.5 mmol/l EGTA, static after shear apparatus): significant reduction in the apoptosis rate
